The results in this text go back to patent EP4417616A1, “LXR ANTAGONISTS” (Ospedale San Raffaele S.r.l., priority 2023, dated 2024).

Assay [1] deals with MC38-GFP colon cancer cells. Put plainly: Liver metastasis model, intramesenteric injection of MC38-GFP cells. Conditions: 400 µg, 3 days/week for 2 weeks; 21 days after tumor challenge; vs vehicle.
Procedure: Macroscopic liver tumor quantification and Immunohistochemistry. At time of autopsy, visible macroscopic tumors were counted, and each liver macroscopically photographed. Livers were then perfused with PBS, harvested and different pieces were sampled, fixed in zinc-formalin and embedded in paraffin for hematoxylin/eosin or immunohistochemical analysis as described^62. Immunohistochemical staining was performed using a Bond RX Automated Immunohistochemistry system (Leica Microsystems GmbH, Wetzlar, Germany) on 3-µm-thick sections. First, tissues were deparaffinized and pre-treated with the Epitope Retrieval Solution [ER1 Citrate Buffer for GFP (dilution 1:500, GFP Polyclonal Antibody, Thermo Fisher Scientific, Cat# A11122, RRID:AB_221569). After washing steps, peroxidase blocking was carried out for 10 min using the Bond Polymer Refine Detection Kit DS9800 (Leica Microsystems GmbH). Then, tissues were washed and incubated for 1h RT with the primary antibody diluted in IHC Antibody Diluent (Novocastra, Leica RE7133). Subsequently, tissues were incubated with polymer-HRP (Biocare Medical, RT517H), developed with DAB-Chromogen for 10 minutes and counterstained with Hematoxilin for 5 minutes. For image acquisition and analysis eSlide Manager (Aperio Leica Biosystems) was used. All images were acquired using the Aperio AT2 system (Leica Biosystems). […]
Another assay concerns OT-I T cells. Put plainly: In vitro differentiation and expansion of activated OT-I T cells by IL-7/IL15. The assay is classed as cell-based, mouse. As to the method: (§1) . Forty-eight hours later the cells were differentiated and expanded by IL-7/IL15 (5ng/ml both cytokines) with or without PFM037. Ten, 12 and 15 days later, FACS analysis was performed to evaluate their differentiation status. […]. Then, mice bearing MC-38-OVA-liver metastases were treated with vehicle, or OT-I T cells expanded with IL-2 (effectors), or IL-7/IL15 with or without PFM037. Tumor-bearing mice injected with vehicle were all dead 40 days after tumor injection. Twenty percent of tumor-bearing mice treated with OT-I T cells expanded with IL-2 were alive at 60 days, whereas 50% and 80% of tumor-bearing mice treated with IL-7/IL15 with or without PFM037, respectively, were alive at 60 days (Fig. 20). […].

Assay [2] concerns bone marrow-purified monocytes. Put plainly: In vitro mono-DC differentiation of bone marrow-purified monocytes cultured with M-CSF. It counts as cell-based, mouse. Particulars: wild type monocytes, 48 hours of culture.
Another assay has as its system human T cells. Put plainly: In vitro expansion of activated human T cells by IL-7/IL15. Conditions: human T cells expanded by IL-7/IL15 with PFM037 (5 and 10 µM). The assay is classed as cell-based.
A further assay concerns IL-1β release. Nature of the assay: IL-1β release. Particulars: at early times after PFM037 treatment.
The test system of assay [3] is LXR target genes ABCA1, SREBP1c, FASN and SCD1. Nature of the assay: Quantitative Real-Time-PCR of LXR target genes in PMA-differentiated U937 cells. Particulars: U937 differentiated with PMA 72 hours; PFM037 50, 25 and 10 µM, 16 hours. It counts as cell-based, human. The protocol:
Reporter assay for nuclear receptor transcriptional activity. Human embryonic Kidney 293 cells (American Type Culture Collection) were cultured in Dulbecco's Modified Eagle's medium containing 10% of fetal bovine serum at 37°C in humidified atmosphere of 5% CO2. HEK293 cells (4×10^4 cells per well) were transiently transfected in 48 well plate with the reporter plasmids pMH100X4-TK-luc (100 ng/300µl), Renilla (22 ng/300µl) together with 100 ng/300µl of pCMX-Gal4-LXRα or pCMX-Gal4-LXRβ plasmids using X-tremeGENE 9 DNA Transfection Reagent (Roche). Six hours after transfection, the cells were treated with the appropriate compound for 24 hours. Luciferase activities were analyzed by luciferase Dual Reporter Assay Systems (Promega) according to the manufacturer's protocol. GAL4-LXRs, and TK-MHC100-luc plasmids were described in^7. For mammalian two-hybrid assays the human liver cell line Hhu7 (American Type Culture Collection) was transiently transfected with the reporter plasmids p5xUAS-tk-Luc (100 ng/300µl) together with pGAL4-RAP250-Del4 (133 ng/300µl), described in^39, and either of pVP16-LXRα-LBD or pVP16-LXRβ-LBD plasmids (133 ng/300µl), described in^40, using the jetPrime transfection reagent (Polyplus). Six hours after transfection, the cells were treated with the appropriate compound for 40 hours. Luciferase activity was analyzed as described above and protein content spectrophotometrically using Coomassie Plus Protein assay reagent (Thermo Scientific). Quantitative Real-Time-PCR. U937 cell line was differentiated in foam macrophages with phorbol 12-myristate 13-acetate (PMA) 10 ng/ml (Sigma) for 72 hours at 37°C in RPMI 10% FBS. At day 3 T0901317 (10 µM) or different amount of PFM037 (50, 25 and 10 µM) were added for 16 hours. Total RNA was purified by TRIZOL (Invitrogen). Reverse transcription was performed by MLV-reverse transcriptase (Promega). QPCR was performed using SYBR Green Master Mix (Applied Biosystems) and real-time PCR (Viia 7 Real Time PCR System, Applied Biosystems). PCR reactions were done in triplicate. The comparative Ct method was used to quantify transcripts that were normalized for human GAPDH. The following primer pairs were used: • GAPDH-F 5'-ACATCATCCCTGCCTCTACTG-3' (SEQ ID No. 1); • GAPDH-R 5'-ACCACCTGGTGCTCAGTGTA-3'(SEQ ID No. 2); • ABCA1-F 5'-CCA GGC CAG TAC GGA ATT C-3' (SEQ ID No. 3); • ABCA1-R 5'-CCT CGC CAA ACC AGT AGG A-3' (SEQ ID No. 4); • SREBP-1c-F 5'-GGC GGG CGC AGA TC-3' (SEQ ID No. 5); • SREBP-1c-R 5'-TTGTTGATAAGCTGAAGCATGTCT-3' (SEQ ID No. 6); • FAS F 5'-ACA GCG GGG AAT GGG TAC T-3'(SEQ ID No. 7); • FAS R 5'-GACTGGTACAACGAGCGGAT-3' (SEQ ID No. 8); • SCD1-F 5'-TTCAGAAACACATGCTGATCCTCATAATTC-3' (SEQ ID No. 9); • SCD1-R 5'-ATTAAGCACCACAGCATATCGCAAGAAAGT-3'(SEQ ID No. 10)

Assay [4] has as its system MC-38-OVA-liver metastases. The assay is classed as in vivo, mice. Conditions: 1440 h. The protocol: as §1
In another assay the test system is RMA lymphoma. Nature of the assay: Treatment of RMA tumor-bearing mice. Conditions: 300 µg i.v. 5 days/week.
Where [5] appears, read: OT-I T cells expanded by IL-7/IL15 with PFM037, FACS at 10, 12 and 15 days.

Procedure for RMA lymphoma: Analysis of tumor infiltrating cells by flow cytometry. […] Tumors collected 7, 10, 12 or 14 days after injection were cut into small fragments and digested with Liberase TL (66 µg/ml, Roche) and DNAse I (150 µg/ml, Roche) for 25-30 minutes at 37 °C. Digested tissues were filtered by using a 75 µm diameter cell strainer. Single cell suspensions were stained with Live/Dead Violet kit reagents (Molecular Probes) for 30 minutes at 4°C. After washing, the cells were incubated for 5-10 minutes at RT with Fc-blocking solution (Anti-CD16/32, 10 µg/ml mouse Fc Block, BD) and then stained with various antibodies incubated at 4°C for 20 minutes. […] CD209a (5H10), CCR7 (4b12) and F4/80 (BM8) were from eBioscience. Rat IgG, Rat IgG2a, Rat IgG2b, Rat IgM and Hamster isotype control mAbs were used as controls (Biolegends and BD Biosciences). For intracellular staining, cells were incubated with PMA (100 ng/ml) and ionomycin (500 ng/ml) in the presence of 10 µg/ml of Brefeldin for 4 hours. Cells were then fixed using the IC Fixation buffer (eBioscience), permeabilized with 1x Permeabilization buffer (eBiosciences) and stained with anti-IFNy mAb. Samples were run by FACSCanto flow cytometer and analyzed by FlowJo software gating on live cells. FACS sorting was performed by using the FACSAria Fusion (BD)
Tumor challenge experiments. C57BL/6 mice were injected subcutaneously with LLC-Mock (1 ×10^6), LLC-SULT2B1b (1 ×10^6), RMA (2 ×10^5), or B16F1-OVA (2 ×10^5) tumor cells. […] Tumor size was evaluated by measuring perpendicular diameters by a caliper every 2-3 days. Data are reported as the average tumor volume ± SD. In selected experiments tumors were injected in Ccr2^-/-mice.
Treatment of tumor-bearing mice with LXR antagonists alone or with immunotherapy. Tumor-bearing mice were treated with 25-HC-3S or PFM037 6-7 days after tumor challenge. After 6-7 days, mice were randomly assigned to either treatment or vehicle groups. Mice were injected with 300 µg of either compound given i.v. for 5 days/week. […] B16F1-OVA-bearing mice were treated with 400 µg of PFM037 for 5 days/week. For controls of mAb experiments, mice were injected with 250 µg of rat IgG2a isotype control antibody. […] Tumors were collected and measured 14 days after tumor challenge.

`CC(C)CC[C@H](O)[C@@H](C)[C@H]1CC[C@H]2[C@@H]3CC=C4C[C@@H](OS(=O)(=O)[O-])CC[C@]4(C)[C@H]3CC[C@]12C.[Na+]` [PFM037, 22(S)-Hydroxycholesterol-3-sulfate sodium salt]: in assay [1], the tumor area result was “reduced” and the “tumor nodules (macroscopic liver tumor lesions)” value is “much less”. In the assay on OT-I T cells (setting [5]), the “CD39 and CD69 markers” value is “progressively lost”; the “CD62L and CD44low markers” value was “progressively acquiring”. In the assay with OT-I T cells (T cells expanded by IL7 and IL15 in the presence of PFM037), the “stemness markers Sca1, Tcf1 and CXCR3” value was “higher levels”. For the same compound, the CD11c marker expression result in assay [2] is recorded as “expressed CD11c marker”. Also, in the assay on human T cells, the “markers associated to memory/stem cell memory T cells” value is “higher levels”. The IL-1β release entry in the assay with IL-1β release is recorded as “no difference”. Moreover, in assay [3], the ABCA1 transcripts result is “no activation”, the “FASN mRNA expression” value is recorded as “inhibition”, the “SCD1 mRNA expression” value is reported as “inhibition” and the “SREBP-1c mRNA expression” value is on record as “inhibition”. Moreover, the “tumor-bearing mice alive at 60 days” value in assay [4] is 50%. Moreover, the “numbers of tumor-infiltrating mono-DCs” value in the assay with RMA lymphoma was “Higher”. Besides, in the assay on RMA lymphoma (tumor weight at sacrifice), the tumor growth result is given as “tumor growth control”.
